{"source": "patent US20060116403A1", "about": "“Therapeutic target and uses thereof” (priority 2002, published 2006)", "key": {"human LDL [1]": {"system": "human LDL", "experiment": "Gel Mobility Shift Assay of core protein labelled proteoglycans binding to human LDL", "conditions": "PDGF stimulated", "procedure": "A new approach to these studies is now used in which the proteoglycan core proteins are metabolically radio-labelled and used to study the binding of human LDL. Cells are incubated with Translabel® (ICN Biochemicals) (^35S-methioinine and cysteine amino acids) and the amino acids are incorporated into the core proteins.\nCore protein labelled proteoglycans were isolated by DEAE sepharose ion exchange chromatography and then the binding to human LDL was studied in a Gel Mobility Shift Assay in which a set amount of radiolabeled proteoglycan is incubated with various amounts of LDL and then the bound and free proteoglycans are separated on a flat bed agarose gel."}, "human LDL [2]": {"system": "human LDL", "experiment": "LDL affinity chromatography of radiolabeled proteoglycans", "type": "cell-based", "conditions": "PDGF treated cells compared to untreated cells", "experimental": "Human blood samples were obtained from healthy subjects. LDL (d=1.019−1.063 g/ml) was purified from blood by sequential density gradient ultracentrifugation as described by Heinecke, J. W., Baker, L., Rosen, H. & Chait, A. Superoxide-mediated modification of low density lipoprotein by arterial smooth muscle cells. J Clin Invest 77, 757-61 (1986). The interaction of total pooled intact proteoglycan preparations with native human LDL was assessed using LDL affinity chromatography, providing a measure of binding capacity. […] Sepharose was prepared in the presence of excess heparin to protect the GAG binding sites. The columns were washed with HEPES buffer above and then with 1M NaCl to remove heparin. Each sample (80,000 cpm) was applied to a separate column. The columns were washed extensively with low salt buffer then eluted (5×0.5 ml) with 1M NaCl to elute bound proteoglycans. Finally the columns were stripped with high salt, high urea buffer. The aggregate radioactivity retained by the LDL column after extensive washing and eluted with 1M NaCl was determined as the binding capacity for the column.\nWe observed a 36% increase in the binding capacity of proteoglycans in PDGF treated cells compared to untreated cells (FIG. 5)."}, "[3]": {"system": "human vascular smooth muscle cells (internal mammary artery)", "experiment": "35S-sulfate incorporation into total secreted proteoglycans (CPC precipitation)", "type": "cell-based", "conditions": "PDGF 50 ng/ml", "experimental": "The Human Ethics Committee of the Alfred Hospital and Baker Heart Research Institute approved the acquisition of tissue.\nCells were metabolically labeled with [^35S]-sulfate ([…]) for the final 24 h.\nThe culture media were collected and each plate rinsed with Dulbecco's PBS (0.25 ml). Aliquots (50 μl) of the media sample were spotted in duplicate on 30×15 mm rectangles of Whatman® 3M chromatography paper (Aldrich, Milwaukee, U.S.A.). The paper was washed five times in a solution containing cetylpyridinium chloride (CPC, 1% w/v) and NaCl (50 mM). Following air drying at room temperature, the paper from each sample was placed in liquid scintillation fluid (Packard, Groningen, The Netherlands) and radioactivity counted in a Beckman Coulter liquid scintillation analyzer (Fullerton, U.S.A). Counts from cells labeled with [^35S]-sulfate and Tran^35SLabel represented total sulfated GAGs and total core protein respectively."}, "[4]": {"system": "vascular smooth muscle cells", "experiment": "Sepharose 6B size exclusion chromatography of cleaved GAG chains", "type": "cell-based, human"}}, "data": [{"substance": "PDGF: human recombinant platelet derived growth factor-BB, growth factor stimulus", "values": [{"measurement": "half-maximal saturation concentration of LDL, PDGF stimulated cells", "setting": "human LDL [1]", "result": 25, "unit": "µg/mL"}, {"measurement": "increase in LDL binding capacity of proteoglycans", "setting": "human LDL [2]", "result": 36, "unit": "%"}, {"measurement": "increase of proteoglycan production", "setting": "[3]", "result": "approximately two-fold"}, {"measurement": "Kav of cleaved GAG chains, PDGF stimulated", "setting": "[4]", "result": 0.45}]}]}
